We go through three compounds from US12215106B2, “Pharmaceutical compounds and therapeutic methods” (RUTGERS, THE STATE UNIVERSITY OF NEW JERSEY, priority 2018, dated 2025).

What is called Papp is a coefficient for how fast a substance crosses the barrier. As usually defined, the Papp A→B is how fast a substance crosses the layer from the apical side. High values mean fast passage, low ones slow passage. One may read the Papp B→A as how fast a substance crosses the layer from the basolateral side. For orientation: efflux ratio means a quotient of directional permeabilities that is used to spot active efflux.

The subject of series [1] is GBM cells. The series is described as follows: Cell viability dose response in GBM cells (Vi-CELL, CellTiter-Glo). It counts as cell-based. The conditions noted are these: compared with controls (DMSO and Temozolomide). The protocol: Small molecules were synthesized by the Molecular Design and Synthesis laboratory, Rutgers Translational Sciences at Rutgers University, NJ, USA. To compare the effects of Exemplary Compound 14 to Comparative Example 100, cells (3×10^5/well) were seeded into the 96-well tissue culture plates and treated with different BMI1 inhibitors (from 10 nM to 10 μM) in appropriate media. Dose response curves were generated upon exposing GBM cells to different concentrations of Exemplary compound 14, Comparative Example 101, and Comparative Example 100 (0.010-10 μM) for 72 hours. Cells were counted using Beckman Coulter Vi-CELL Cell Viability Analyzer, and cell viability was confirmed by CellTiter-Glo Luminescent Cell Viability Assay (Promega, Madison, WI, USA) according to standard protocols and analyzed with a Victor 2 plate reader (Wallac, Turku, Finland). We then assessed the selectivity and potency in GBM cells vs primary GBM. Dose-response curves were generated in both spheres and monocultures and used to determine a sphere selectivity ratio (targeting Glioblastoma Initiating Cells), defined as EC50(U87)/EC50(spheres), for each compound.

The nature of series [2]: Toxicity in preclinical mouse models. It counts as in vivo.
A short description of series [3]: Bi-directional Caco-2 transport assay. It counts as in vitro ADME. Particulars: human; for Papp at 90 min, 5 μM: Caco-2; for Papp A→B at 90 min, 5 μM / Papp B→A at 90 min, 5 μM: Caco-2, pH 7.4. The protocol: (§1) The objective of the study is to evaluate test compounds as substrates for efflux transporter using Caco-2 cell line. To assess the functionality of P-glycoprotein (P-gp), loperamide was run as a positive control (Apical and basolateral HBSS pH 7.4).
(§2) 5 mM DMSO stock of test compounds and loperamide was diluted 1000-folds in HBSS having 0.1% DMSO to prepare concentrations of 5 μM.
(§3) Caco-2 cells were grown in DMEM (20% FBS) until 85-90% confluence. After attaining required confluence, cells were trypsinized and seeded into 24 well millcell plates at a density of 0.6×10^5 cells/insert. The plates were maintained for 21 days at 37° C. in CO2 incubator with change of medium every alternative day. Monolayer integrity was monitored by measuring Trans-epithelial electrical resistance (TEER) from day 15.
(§4) Caco-2 cell monolayer was washed twice with HBSS and incubated for 40 min in CO2 incubator. TEER values were measured and wells showing TEER values above 230 ohms·cm^2 were taken for experiments. The study was performed in loperamide and test compounds by adding 400 μL of loperamide prepared in HBSS in apical (A-B transport) followed by addition of 800 μL of HBSS on basal side and for B-A transport 800 μL of loperamide prepared in HBSS was dosed in basal followed by addition of 400 μL HBSS on apical side. At selected time points (0, 15, 30, 60 and 90 mins) an aliquot of 50 μL was collected from the receiver compartment for determination of test compound concentrations. The volume withdrawn was replaced immediately with HBSS buffer. TEER was measured at the end to the experiment to confirm any damage of monolayer while performing experiment. Those wells with TEER not meeting the criteria were excluded from the study.
(§5) A 50 μL of test compound samples collected at respective time points and submitted for LC-MS/MS analysis.
(§6) The apparent permeability (Papp) (A−B & B−A) of test compounds and positive control was calculated using the following formula: Papp=dQ/dt/A·Co where, dQ/dt=linear slope of test compound concentration in receptor chamber with time (0, 15, 30, 60 and 90 min) after correcting for dilution; A=area of the filter (0.7 cm^2); and Co=initial concentration of compound in the donor compartment.
(§7) Efflux ratio (RE) was calculated using the following equation: RE=PB/A/PA/B where PB/A and PA/B represent the apparent permeability of test compound from the basal to apical and apical to basal side of cell monolayer.
(§8) Recovery represents: (amount of the compound recovered from donor at end of incubation+cumulative amount of compound in acceptor at end of incubation+amount of the compound in cell lysate or assay well)/amount of compound in donor solution at time zero*100
(§9) Compounds are classified based on Papp values as follows:
(§10) A compound having efflux ratio of >2 is considered as having potential as a P-gp substrate.
(Passage across Caco-2 layers is used to estimate intestinal permeability.)

For series [4], the system named is P-gp. The series is described as follows: Bi-directional Caco-2 transport assay. The conditions noted are these: human, Caco-2, Efflux Ratio (B-A/A-B). It counts as in vitro ADME. The protocol:
as §1, §2, §3, §4, §5, §6, §7, §8, §9, §10

Where a name gives a salt, the structure may show the parent alone.

As for `COc1c(F)cc(Nc2nc(-c3c(C)nc4ccccn34)cs2)cc1F` [Compound 14, hydrochloride], the “sphere selectivity ratio EC50(U87)/EC50(spheres)” value in series [1] is reported as “high selectivity for glioblastoma cancer stem cells”. In addition, in series [2], the toxicity in vivo entry is on record as “appear not to have toxicity in vivo”.
As to `Cc1nc2ccccn2c1-c1csc(Nc2ccc3c(c2)OC(F)(F)O3)n1` [Compound 16, N-(2,2-difluorobenzo[d][1,3]dioxol-5-yl)-4-(2-methylimidazo[1,2-a]pyridin-3-yl)thiazol-2-amine hydrochloride], in series [3], the Papp at 90 min, 5 μM is 3 to 15 ×10⁻⁶ cm/s; the apparent permeability from apical to basolateral (Papp A→B) at 90 min, 5 μM amounted to 14 ± 3.3 ×10⁻⁶ cm/s; the Papp B→A at 90 min, 5 μM was found to be 12.1 ± 0.1 ×10⁻⁶ cm/s.
Regarding `[2H]C1([2H])Oc2ccc(Nc3nc(-c4c(C)nc5ccccn45)cs3)cc2O1` [Compound 17, N-(benzo[d][1,3]dioxol-5-yl-2,2-d2)-4-(2-methylimidazo[1,2-c]pyridin-3-yl)thiazol-2-amine hydrochloride], in series [3], the Papp at 90 min, 5 μM lay within 3 to 15 ×10⁻⁶ cm/s; the Papp A→B at 90 min, 5 μM was 4.9 ± 0.8 ×10⁻⁶ cm/s; the Papp B→A at 90 min, 5 μM worked out at 6.4 ± 0.6 ×10⁻⁶ cm/s. For the same compound, the efflux ratio at 90 min, 5 μM in series [4] was less than 2.
